Source: patent EP0908457B1, “3-(1,2-benzisothiazol- and isoxazol-5-Y1)-2,4(1H,3H)-pyrimidinedione or thione and 3-(1,2-benzisothiazol- and isoxazol-5-y1)-4(3H)-pyrimidinone or thione herbicidal agents” (BASF AKTIENGESELLSCHAFT, priority 1997, dated 1999)

Assays:
Type in all cases: in vivo
Cyperus iria = assay: Preemergence weed control under flooded paddy conditions, CYPIR (Rice Flatsedge); conditions: flooded paddy; on herbicidal effect rating, CYPIR: meaning of each grade not given here
[1] = system: Monochoria vaginalis, Presl.; assay: Preemergence weed control under flooded paddy conditions, MOOVA (Monochoria); conditions: flooded paddy; on herbicidal effect rating, MOOVA: meaning of each grade not given here
Sagittaria pygmaea, L. = assay: Preemergence weed control under flooded paddy conditions, SAGPY (Arrowhead (Pygmaea)); conditions: flooded paddy; on herbicidal effect rating, SAGPY: meaning of each grade not given here
[2] = system: Cyperus serotinus, Rottb.; assay: Preemergence weed control under flooded paddy conditions, CYPSE (Flatsedge); on herbicidal effect rating, CYPSE: meaning of each grade not given here
[3] = system: Echinochloa oryzoides (Ard.) Fritsch.; assay: Preemergence weed control under flooded paddy conditions, ECHORC (Watergrass (Calif.)); conditions: flooded paddy; on herbicidal effect rating, ECHORC: meaning of each grade not given here
[4] = Rate 0.0320 kg/ha, preemergence, rated three to four weeks after treatment
[5] = Rate 0.0620 kg/ha, preemergence, rated three to four weeks after treatment
[6] = Rate 0.1250 kg/ha, preemergence, rated three to four weeks after treatment
[7] = Rate 0.2500 kg/ha, preemergence, rated three to four weeks after treatment
[8] = Rate 0.0320 kg/ha, preemergence weeds, rated three to four weeks after treatment
[9] = Rate 0.0620 kg/ha, preemergence weeds, rated three to four weeks after treatment
[10] = Rate 0.1250 kg/ha, preemergence weeds, rated three to four weeks after treatment
[11] = Rate 0.2500 kg/ha, preemergence weeds, rated three to four weeks after treatment
[12] = 0.0320 kg/ha, preemergence, rated three to four weeks after treatment
[13] = 0.0620 kg/ha, preemergence, rated three to four weeks after treatment
[14] = 0.1250 kg/ha, preemergence, rated three to four weeks after treatment
[15] = 0.2500 kg/ha, preemergence, rated three to four weeks after treatment
[16] = Rate 0.0320 kg/ha, preemergence, rated 3-4 weeks after treatment
[17] = Rate 0.0620 kg/ha, preemergence, rated 3-4 weeks after treatment
[18] = Rate 0.1250 kg/ha, preemergence, rated 3-4 weeks after treatment
[19] = Rate 0.2500 kg/ha, preemergence, rated 3-4 weeks after treatment

| Structure (SMILES) | herbicidal effect rating, CYPIR (Cyperus iria; [4]) | herbicidal effect rating, CYPIR (Cyperus iria; [5]) | herbicidal effect rating, CYPIR (Cyperus iria; [6]) | herbicidal effect rating, CYPIR (Cyperus iria; [7]) | herbicidal effect rating, MOOVA [1, 4] | herbicidal effect rating, MOOVA [1, 5] | herbicidal effect rating, MOOVA [1, 6] | herbicidal effect rating, MOOVA [1, 7] | herbicidal effect rating, SAGPY (Sagittaria pygmaea, L.; [4]) | herbicidal effect rating, SAGPY (Sagittaria pygmaea, L.; [5]) | herbicidal effect rating, SAGPY (Sagittaria pygmaea, L.; [6]) | herbicidal effect rating, SAGPY (Sagittaria pygmaea, L.; [7]) | herbicidal effect rating, CYPSE [2, 4] | herbicidal effect rating, CYPSE [2, 5] | herbicidal effect rating, CYPSE [2, 6] | herbicidal effect rating, CYPSE [2, 7] | herbicidal effect rating, ECHORC [3, 4] | herbicidal effect rating, ECHORC [3, 5] | herbicidal effect rating, ECHORC [3, 6] | herbicidal effect rating, ECHORC [3, 7] | further results |
| --- | --- | --- | --- | --- | --- | --- | --- | --- | --- | --- | --- | --- | --- | --- | --- | --- | --- | --- | --- | --- | --- |
| C=CCONC(=O)c1nsc2ccc(-n3c(=O)cc(C(F)(F)F)n(C)c3=O)cc12 [Example 399, 1,2-Benzisothiazole-3-carboxamide, N-(allyloxy)-5-[3,6-dihydro-3-methyl-2,6-dioxo-4-(trifluoromethyl)-1(2H)-pyrimidinyl]-] | 0.0 | 2.0 | 7.0 | 8.0 | 6.0 | 7.0 | 8.0 | 9.0 | 0.0 | 0.0 | 0.0 | 0.0 | 0.0 | 0.0 | 0.0 | 0.0 | 0.0 | 0.0 | 2.0 | 3.0 |  |
| Cn1c(C(F)(F)F)cc(=O)n(-c2ccc3snc(C(C#N)=Cc4ccccc4F)c3c2)c1=O [Example 605, 1,2-Benzisothiazole-3-acetonitrile, 5-[3,6-dihydro-3-methyl-2,6-dioxo-4-(trifluoromethyl)-1(2H)-pyrimidinyl]-alpha-(o-fluorobenzylidene)-] | 1.0 | 3.0 | 7.0 | 7.0 | 9.0 | 9.0 | 9.0 | 9.0 | 4.0 | 4.0 | 5.0 | 7.0 | 0.0 | 0.0 | 0.0 | 0.0 | 4.0 | 4.0 | 7.0 | 7.0 |  |
| CC(OS(C)(=O)=O)c1nsc2ccc(-n3c(=O)cc(C(F)(F)F)n(C)c3=O)cc12 (stereo not drawn) [Example 309, 2,4(1H,3H)-Pyrimidinedione, 3-[3-(1-hydroxyethyl)-1,2-benzisothiazol-5-yl]-1-methyl-6-(trifluoromethyl)-, methanesulfonate (ester)] |  |  |  |  |  |  |  |  |  |  |  |  |  |  |  |  |  |  |  |  | herbicidal effect rating, CYPIR (Cyperus iria; [8]): 9.0; herbicidal effect rating, CYPIR (Cyperus iria; [9]): 9.0; herbicidal effect rating, CYPIR (Cyperus iria; [10]): 9.0; herbicidal effect rating, CYPIR (Cyperus iria; [11]): 9.0; herbicidal effect rating, MOOVA [1, 8]: 6.0; herbicidal effect rating, MOOVA [1, 9]: 6.0; herbicidal effect rating, MOOVA [1, 10]: 9.0; herbicidal effect rating, MOOVA [1, 11]: 9.0; herbicidal effect rating, SAGPY (Sagittaria pygmaea, L.; [8]): 2.0; herbicidal effect rating, SAGPY (Sagittaria pygmaea, L.; [9]): 3.0; herbicidal effect rating, SAGPY (Sagittaria pygmaea, L.; [10]): 4.0; herbicidal effect rating, SAGPY (Sagittaria pygmaea, L.; [11]): 8.0; herbicidal effect rating, CYPSE [2, 8]: 0.0; herbicidal effect rating, CYPSE [2, 9]: 0.0; herbicidal effect rating, CYPSE [2, 10]: 0.0; herbicidal effect rating, CYPSE [2, 11]: 7.0; herbicidal effect rating, ECHORC [3, 8]: 1.0; herbicidal effect rating, ECHORC [3, 9]: 2.0; herbicidal effect rating, ECHORC [3, 10]: 4.0; herbicidal effect rating, ECHORC [3, 11]: 7.0 |
| Cn1c(C(F)(F)F)cc(=O)n(-c2ccc3snc(COC(=O)c4cc(Cl)nc(Cl)c4)c3c2)c1=O [Example 474, 2,4(1H,3H)-Pyrimidinedione, 3-[3-(hydroxymethyl)-1,2-benzisothiazol-5-yl]-1-methyl-6-(trifluoromethyl)-, 2,6-dichloroisonicotinate (ester)] |  |  |  |  |  |  |  |  |  |  |  |  |  |  |  |  |  |  |  |  | CYPIR herbicidal rating (Cyperus iria; [12]): 2.0; CYPIR herbicidal rating (Cyperus iria; [13]): 5.0; CYPIR herbicidal rating (Cyperus iria; [14]): 4.0; CYPIR herbicidal rating (Cyperus iria; [15]): 6.0; MOOVA herbicidal rating [1, 12]: 2.0; MOOVA herbicidal rating [1, 13]: 3.0; MOOVA herbicidal rating [1, 14]: 7.0; MOOVA herbicidal rating [1, 15]: 9.0; SAGPY herbicidal rating (Sagittaria pygmaea, L.; [12]): 0.0; SAGPY herbicidal rating (Sagittaria pygmaea, L.; [13]): 0.0; SAGPY herbicidal rating (Sagittaria pygmaea, L.; [14]): 0.0; SAGPY herbicidal rating (Sagittaria pygmaea, L.; [15]): 0.0; CYPSE herbicidal rating [2, 12]: 0.0; CYPSE herbicidal rating [2, 13]: 0.0; CYPSE herbicidal rating [2, 14]: 0.0; CYPSE herbicidal rating [2, 15]: 0.0; ECHORC herbicidal rating [3, 12]: 0.0; ECHORC herbicidal rating [3, 13]: 0.0; ECHORC herbicidal rating [3, 14]: 0.0; ECHORC herbicidal rating [3, 15]: 0.0 |
| Cn1c(C(F)(F)F)cc(=O)n(-c2ccc3snc(C[S+]([O-])c4ccccc4)c3c2)c1=O (stereo not drawn) [Example 394, 2,4(1H,3H)-Pyrimidinedione, 1-methyl-3-{3-[(phenylsulfinyl)methyl]-1,2-benzisothiazol-5-yl}-6-(trifluoromethyl)-] | 0.0 | 3.0 | 5.0 | 7.0 | 8.0 | 8.0 | 9.0 | 9.0 |  | 0.0 | 0.0 | 0.0 | 0.0 | 0.0 | 0.0 | 2.0 | 0.0 | 0.0 | 4.0 | 6.0 |  |
| Cc1ccc(OCC(=O)OCC2CCOC2)c(-c2nsc3ccc(-n4c(=O)cc(C(F)(F)F)n(C)c4=O)cc23)c1 (racemic) [Example 535, Acetic acid, {{2-{5-[3,6-dihydro-3-methyl-2,6-dioxo-4-(trifluoromethyl)-1(2H)-pyrimidinyl]-1,2-benzisothiazol-3-yl}-p-tolyl}oxy}-, (tetrahydro-3-furyl)methyl ester, DL-] |  |  |  |  |  |  |  |  |  |  |  |  |  |  |  |  |  |  |  |  | herbicidal effect rating, CYPIR (Cyperus iria; [16]): 0.0; herbicidal effect rating, CYPIR (Cyperus iria; [17]): 6.0; herbicidal effect rating, CYPIR (Cyperus iria; [18]): 9.0; herbicidal effect rating, CYPIR (Cyperus iria; [19]): 9.0; herbicidal effect rating, MOOVA [1, 16]: 6.0; herbicidal effect rating, MOOVA [1, 17]: 9.0; herbicidal effect rating, MOOVA [1, 18]: 9.0; herbicidal effect rating, MOOVA [1, 19]: 9.0; herbicidal effect rating, SAGPY (Sagittaria pygmaea, L.; [16]): 0.0; herbicidal effect rating, SAGPY (Sagittaria pygmaea, L.; [17]): 0.0; herbicidal effect rating, SAGPY (Sagittaria pygmaea, L.; [18]): 3.0; herbicidal effect rating, SAGPY (Sagittaria pygmaea, L.; [19]): 3.0; herbicidal effect rating, CYPSE [2, 16]: 0.0; herbicidal effect rating, CYPSE [2, 17]: 3.0; herbicidal effect rating, CYPSE [2, 18]: 5.0; herbicidal effect rating, CYPSE [2, 19]: 5.0; herbicidal effect rating, ECHORC [3, 16]: 0.0; herbicidal effect rating, ECHORC [3, 17]: 3.0; herbicidal effect rating, ECHORC [3, 18]: 3.0; herbicidal effect rating, ECHORC [3, 19]: 4.0 |
| COc1ccc(COC(=O)C(C)(C)c2nsc3ccc(-n4c(=O)cc(C(F)(F)F)n(C)c4=O)cc23)cc1 [Example 397, 1,2-Benzisothiazole-3-acetic acid, 5-[3,6-dihydro-3-methyl-2,6-dioxo-4-(trifluoromethyl)-1(2H)-pyrimidinyl]-alpha,alpha-dimethyl-, p-methoxybenzyl ester] | 6.0 | 7.0 | 9.0 | 9.0 | 9.0 | 9.0 | 9.0 | 9.0 | 4.0 | 5.0 | 5.0 | 5.0 | 0.0 |  | 0.0 | 0.0 | 9.0 | 9.0 | 9.0 | 9.0 |  |
